Laboratory results published in US8071548B2, “Method of reducing injury to mammalian cells” (Nono, Inc., priority 2002, dated 2011).

What was measured:
[1] = tested on: reactive oxygen species; experiment: ROS production (DHR fluorescence); format: cell-based, mouse
Experimental: The production of reactive oxygen species (ROS) was measured with DHR. In brief, DHR is oxidized to a fluorescent rhodamine-123 (Royall and Ischiropoulos, 1993), and the consequent rise in fluorescence may be used as an indicator of ROS production.
ROS were measured as previously described (Tymianski et al., 1998; Aarts et al., 2003). In brief, cultures were pre-loaded for 30 min with 5 μM DHR and subjected to the experimental insult. DHR fluorescence was measured in a multiwell plate fluorescence scanner (Cytofluor II, PerSeptive Biosytems, Framingham, Mass., USA; 485 nm excitation, 530 emission). DHR fluorescence was normalized to baseline using the formula at (Ft−Fo)/F0; Where Ft=DHR fluorescence at time t, Fo=DHR fluorescence at time zero. DHR fluorescence images were also acquired using a microscope (465-495 nm excitation and 515-555 nm emission) as described above for TMRM.

[2] = Physiological variables in pre-treatment MCAO study; format: in vivo, Sprague-Dawley rats
Experimental: Next, I examined whether pretreatment with Tat-peptides would reduce stroke damage. Experiments were carried out in adult male Sprague-Dawley rats subjected to transient middle cerebral artery occlusion (MCAO) for 90 minutes by the intraluminal suture method (36,37). Animals were fasted overnight and injected with atropine sulfate (0.5 mg/kg IP). After 10 minutes anesthesia was induced with 3.5% halothane in a mixture of nitrous oxide and oxygen (Vol. 2:1) and maintained with 0.8% halothane. Rats were orally intubated, mechanically ventilated, and paralyzed with pancuronium bromide (0.6 mg/kg IV). Body temperature was maintained at 36.5-37.5° C. with a heating lamp. Polyethylene catheters in the femoral artery and vein were used to continuously record blood pressure and to sample blood for gas and pH measurements. […] This produces an extensive infarction encompassing the cerebral cortex and basal ganglia. […] Physiological parameters (body temperature, blood pressure, blood gases) were monitored and maintained throughout the experiment (Table 1). All experimental manipulations and analyses of data were performed by individuals blinded to the treatment groups. The extent of cerebral infarction was measured 24 h after MCAO onset (FIG. 7C inset). The postural reflex test (38), and the forelimb placing test (39) were used to grade neurological function on a scale of 0 to 12 (normal=0; worst=12) during MCAO (at 50 minutes) and 24 h thereafter.

[3] = tested on: traumatic brain injury; experiment: Lateral fluid percussion injury model of TBI; format: in vivo, Sprague-Dawley rats; conditions: analyzed 24 h after injury
Experimental: Adult male Sprague-Dawley rats weighing approximately 350 g were ordered from Charles River and anesthesia was induced using a gaseous mixture of 1:2 oxygen:nitrous oxide with 2% halothane. The halothane level was reduced to 1% during surgical manipulations and weights were recorded prior to preparatory surgery. The preparatory surgery for these experiments included the cannulation of the left femoral vein and a 5 mm diameter craniotomy. The venous cannula is sealed and tucked inside the animal whereupon the wound is sutured. The center of the craniotomy lies about 2.5 mm to the right of the sagittal suture, between the bregma and lambda. A modified Leur-loc is attached to the perimeter of the craniotomy with superglue (FIG. 28).
Dental acrylic (GC America Inc, Alsip, Ill.) is applied around the modified Leur-loc to seal it into place. A small piece of gelfoam is placed into the opening and the skin is sutured over the entire setup. The animal is then returned to its cage. The following day, the animal is re-anesthetized, weighed, and its wound is re-opened. The gelfoam is removed and the animal is attached to the fluid percussion device via the modified Leur-loc. At this time, the animal is given a ˜20 ms saline injection at approximately 2.4 atmospheres (350 mV on the oscilloscope) using the fluid percussion injury device (Custom Design & Fabrication, Richmond, Va.) (FIG. 29).
On occasion, the animal ceases spontaneous breathing following the injury and 1-2 chest compressions are required for resuscitation. The modified Leur-loc along with the dental acrylic is removed en bloc immediately following the injury. The animal is placed on 100% oxygen while its wound is cleaned and resealed with Vetbond tissue adhesive (3M Worldwide, Maplewood, Minn.). The rat's body temperature during the recovery time is maintained at 37° C. with a homeothermic warming blanket (Harvard Bioscience Inc, Holliston, Mass.). The amount of time necessary for the righting reflex to return is recorded and the animal is placed back into its cage. At 3 h post-injury, the animal is re-anesthetized and weighed again. The wound overlying the femoral cannula is opened and the cannula is cleaned out using heparinized saline. […] The cannula is sealed, tucked again into the animal, and the wound is re-sutured. At 24 h post-injury, the animal is re-anesthetized and weighed again. The rat is transcardially perfused using heparinized saline to clean out the cardiovascular system, followed by a 4% formalin fixative solution. The rat is decapitated and left in the fixative solution overnight. The brain is extracted the following day and processed. The volume of damaged brain (FIG. 26, right graph) is assessed according to the same methods as described in Aarts et al., 2002, for assessing stroke volumes. […]

[4] = Physiological variables in post-treatment MCAO study; format: in vivo, Sprague-Dawley rats
Experimental: Next, I examined whether treatment with Tat-NR2B9c could attenuate ischemic neuronal damage in-vivo when given after stroke onset. […] Infarction volume and neurological outcome measurements were performed at times identical to the pre-treatment study. Body temperature, blood pressure and blood gases were monitored throughout the 24 h experiment and maintained equivalent between groups (Table 2).

Q: Which “ROS production by stretch alone” value ([1]; 50 nM pretreatment) does the source give for Tat-KLSSIESDV [Tat-NR2B9c] here?
A: has no effect

Q: And the “NMDA-evoked ROS production (DHR oxidation)” value ([1]; 50 nM pretreatment 30 min, stretched and unstretched cultures)?
A: reduced NMDA-evoked ROS production

Q: What about the “Body Temperature” value ([2]; After MCAo (15 min)) of the same substance?
A: 36.8 ± 0.12 °C

Q: And the “Body Temperature” value ([2]; After MCAo (24 hr))?
A: 36.5 ± 0.14 °C

Q: What about the Body weight ([2]; After MCAo (24 hr)) of the same substance?
A: 250 ± 5 g

Q: What about the “Body Temperature” value ([2]; Before MCAo(15 min)) of the same substance?
A: 36.7 ± 0.20 °C

Q: What about the MABP ([2]; Before MCAo(15 min)) of the same substance?
A: 90 ± 6 mmHg

Q: What about the “Blood gases PCO2” value ([2]; Before MCAo(30 min)) of the same substance?
A: 38.1 ± 1.4 mmHg

Q: And the “Blood gases PH” value ([2]; Before MCAo(30 min))?
A: 7.44 ± 0.02

Q: And the “Blood gases PO2” value ([2]; Before MCAo(30 min))?
A: 123 ± 8 mmHg

Q: And the “Body Temperature” value ([2]; Before MCAo(30 min))?
A: 36.7 ± 0.19 °C

Q: What about the MABP ([2]; Before MCAo(30 min)) of the same substance?
A: 76 ± 5 mmHg

Q: What about the “Body Temperature” value ([2]; Before MCAo(45 min)) of the same substance?
A: 36.6 ± 0.21 °C

Q: And the MABP ([2]; Before MCAo(45 min))?
A: 120 ± 9 mmHg

Q: And the Body weight ([2]; Before anesthesia)?
A: 271 ± 5 g

Q: And the “Blood gases PCO2” value ([2]; During MCAo (5 min))?
A: 41.0 ± 1.3 mmHg

Q: What about the “Blood gases PH” value ([2]; During MCAo (5 min)) of the same substance?
A: 7.44 ± 0.02

Q: What about the “Blood gases PO2” value ([2]; During MCAo (5 min)) of the same substance?
A: 112 ± 6 mmHg

Q: And the “Body Temperature” value ([2]; During MCAo (5 min))?
A: 36.7 ± 0.16 °C

Q: And the MABP ([2]; During MCAo (5 min))?
A: 112 ± 9 mmHg

Q: What about the “Body Temperature” value ([2]; During MCAo (15 min)) of the same substance?
A: 36.8 ± 0.23 °C

Q: And the MABP ([2]; During MCAo (15 min))?
A: 98 ± 6 mmHg

Q: What about the “total volume of injured brain” value ([3]; 3 hours after TBI) of the same substance?
A: significantly reduced

Q: And the “fraction of dead cells in cerebral cortex and hippocampus ipsilateral to the injury” value ([3]; via femoral cannula 3 hours after TBI)?
A: markedly reduced fraction of dead cells

Q: What about the “Body Temperature” value ([4]; After MCAo (15 min)) of the same substance?
A: 36.8 ± 0.08 °C

Q: And the MABP ([4]; After MCAo (15 min))?
A: 119 ± 4 mmHg

Q: What about the “Body Temperature” value ([4]; After MCAo (24 hr)) of the same substance?
A: 36.4 ± 0.24 °C

Q: And the Body weight ([4]; After MCAo (24 hr))?
A: 279 ± 8 g

Q: What about the “Blood gases PCO2” value ([4]; Before MCAo(15 min)) of the same substance?
A: 40.1 ± 1.0 mmHg

Q: What about the “Blood gases PH” value ([4]; Before MCAo(15 min)) of the same substance?
A: 7.43 ± 0.02

Q: What about the “Blood gases PO2” value ([4]; Before MCAo(15 min)) of the same substance?
A: 105 ± 4 mmHg

Q: What about the “Body Temperature” value ([4]; Before MCAo(15 min)) of the same substance?
A: 36.6 ± 0.07 °C

Q: What about the MABP ([4]; Before MCAo(15 min)) of the same substance?
A: 103 ± 5 mmHg

Q: And the Body weight ([4]; Before anesthesia)?
A: 306 ± 7 g

Q: What about the “Blood gases PCO2” value ([4]; During MCAo (15 min)) of the same substance?
A: 39.8 ± 0.9 mmHg

Q: What about the “Blood gases PH” value ([4]; During MCAo (15 min)) of the same substance?
A: 7.43 ± 0.01

Q: What about the “Blood gases PO2” value ([4]; During MCAo (15 min)) of the same substance?
A: 111 ± 4 mmHg

Q: What about the “Body Temperature” value ([4]; During MCAo (15 min)) of the same substance?
A: 37.0 ± 0.07 °C

Q: What about the MABP ([4]; During MCAo (15 min)) of the same substance?
A: 119 ± 8 mmHg

Q: What about the “Body Temperature” value ([4]; During MCAo (60 min)) of the same substance?
A: 36.7 ± 0.11 °C

Q: And the MABP ([4]; During MCAo (60 min))?
A: 143 ± 5 mmHg

Q: And the “Body Temperature” value ([4]; During MCAo (65 min))?
A: 36.9 ± 0.08 °C

Q: And the MABP ([4]; During MCAo (65 min))?
A: 137 ± 4 mmHg
